Experimental data published in the CheMixHub drug solubility set.

Experiment: xn = mol fraction of the nth substance listed, in the solute-free solvent

CC(C)Oc1ccc2c(=O)c(-c3ccccc3)coc2c1 + CN1CCCC1=O + CCO
solubility (g/100 g solution)
Details	278.15 K	283.15 K	288.15 K	293.15 K	298.15 K	303.15 K	308.15 K	313.15 K	318.15 K	323.15 K
x2 = 0.1038	1.5	1.87	2.26	2.85	3.5	4.39	5.46	6.91	8.81	10.8
x2 = 0.2359	2.85	3.39	4.07	4.91	6.03	7.33	8.92	11	13.1	15.9
x2 = 0.41	5.57	6.67	7.63	9.21	10.9	12.9	15.3	17.8	21	24.9
x2 = 0.6471	9.68	11	12.7	14.6	16.8	19.3	22.1	25.1	28.4	32.1

CC(C)Oc1ccc2c(=O)c(-c3ccccc3)coc2c1 + CN(C)C=O + CCO
solubility (g/100 g solution)
Details	278.15 K	283.15 K	288.15 K	293.15 K	298.15 K	303.15 K	308.15 K	313.15 K	318.15 K	323.15 K
x2 = 0.1358	1.29	1.64	2.07	2.55	3.28	4.15	5.33	6.87	8.61	11
x2 = 0.2956	2.42	3	3.68	4.58	5.6	6.95	8.67	10.9	13.3	16.5
x2 = 0.4859	3.8	4.83	5.92	7.22	8.72	10.4	12.9	15.3	18.8	22.7
x2 = 0.716	5.06	6.49	7.97	9.74	11.7	14.2	17.1	20.4	24	28.5

N#CC(c1ccc(Cl)cc1)c1c(Cl)cc(-n2ncc(=O)[nH]c2=O)cc1Cl (stereo unspecified) + CN(C)C=O + CCO
solubility (g/100 g solution)
Details	283.15 K	288.15 K	293.15 K	298.15 K	303.15 K	308.15 K	313.15 K	318.15 K	323.15 K
x2 = 0.1361	3.28	3.86	4.52	5.25	6.05	6.91	7.87	8.89	9.99
x2 = 0.2959	5.7	6.56	7.46	8.51	9.59	10.8	12	13.4	14.7
x2 = 0.486	8.24	9.37	10.4	11.7	12.9	14.2	15.7	17.2	18.8
x2 = 0.716	10.6	11.8	12.9	14.3	15.6	17	18.5	20	21.6

Cc1nc(C)c(C)nc1C + CO + CC#N
solubility (g/100 g solution)
Details	273.15 K	278.15 K	283.15 K	288.15 K	293.15 K	298.15 K	303.15 K	308.15 K	313.15 K
x2 = 0.1	12.7	15	18.1	21.4	25.1	28.9	33.9	37.6	44.6
x2 = 0.2	17.3	20.5	23.4	26.7	30.8	34.9	40.1	43.5	50.5
x2 = 0.3	21.2	24.5	28.2	31.8	36.5	40.2	46	49.2	55.7
x2 = 0.4	25.6	28.9	32.5	36.4	41	44.3	50	53.8	60.4
x2 = 0.5	28.6	32	36.6	39.9	45.1	48.2	53.4	57.3	63.5
x2 = 0.6	31.3	34.5	39.2	42.7	47.6	51.5	56.2	60.5	67.4
x2 = 0.7	33.6	36.1	40.8	44.6	49.4	53.8	59	63.1	70
x2 = 0.8	34.6	37.3	42.2	45.7	50.8	54.8	61.3	64.9	71.2
x2 = 0.9	35	37.6	42.7	45.6	51	54.9	61.9	65.3	70.7

O=C(O)c1ccc(-n2nc(-c3ccccc3O)nc2-c2ccccc2O)cc1 + CO + CC#N
298.15 K
Details	solubility (g/100 g solution)
x2 = 0.1246	4.33
x2 = 0.2426	7.73
x2 = 0.3544	11.2
x2 = 0.4606	14.2
x2 = 0.5616	16.4
x2 = 0.6577	17.6
x2 = 0.7493	18
x2 = 0.8367	17.2
x2 = 0.9202	15.3

Cl.c1ccc2c(CC3=NCCN3)cccc2c1 + CO + CC(C)O
solubility (g/100 g solution)
Details	278.15 K	283.15 K	288.15 K	293.15 K	298.15 K	303.15 K	308.15 K	313.15 K	318.15 K	323.15 K
x2 = 0.1724	0.41	0.484	0.577	0.695	0.819	1.01	1.16	1.42	1.62	1.85
x2 = 0.3192	0.793	0.94	1.05	1.29	1.46	1.74	2.05	2.38	2.74	3.14
x2 = 0.4456	1.3	1.58	1.8	2.14	2.45	2.88	3.31	3.94	4.53	5.08
x2 = 0.5556	1.91	2.41	2.82	3.29	3.8	4.3	5.07	6.02	6.76	7.78
x2 = 0.6522	2.34	2.72	3.12	3.71	4.22	4.92	5.63	6.51	7.33	8.47
x2 = 0.7377	2.88	3.52	4.25	5.06	5.99	6.93	7.8	8.95	10.2	11.5
x2 = 0.814	3.62	4.51	5.34	6.58	7.66	8.91	10.4	11.8	13.3	14.9
x2 = 0.8823	4.46	5.61	6.67	8.06	9.39	11	12.7	14.7	16.4	18.4
x2 = 0.944	5.43	6.55	7.62	9.25	10.7	12.9	15	17.3	19.4	21.8

Cl.c1ccc2c(CC3=NCCN3)cccc2c1 + CO + CCO
solubility (g/100 g solution)
Details	278.15 K	283.15 K	288.15 K	293.15 K	298.15 K	303.15 K	308.15 K	313.15 K	318.15 K	323.15 K
x2 = 0.1377	2.14	2.61	3.11	3.69	4.45	5.14	5.88	6.74	7.61	8.5
x2 = 0.2644	3.05	3.54	3.96	4.7	5.27	6.18	7.06	8.2	9.28	10.6
x2 = 0.3812	3.8	4.39	5.05	5.74	6.63	7.58	8.73	9.78	11.4	12.7
x2 = 0.4894	4.21	4.86	5.45	6.36	7.17	8	9.31	10.4	11.9	13.2
x2 = 0.5898	4.47	5.59	6.2	7.21	8.02	9.29	10.6	11.7	13.2	14.6
x2 = 0.6832	4.86	5.8	6.77	7.78	8.82	10	11.3	12.8	14.4	16.1
x2 = 0.7704	5.03	6.14	7.26	8.67	10.3	11.5	13.1	14.6	16.2	18.3
x2 = 0.8519	5.48	6.63	7.79	9.34	11	13.3	14.8	16.8	18.5	20.5
x2 = 0.9283	5.66	6.83	8.15	9.82	11.7	14	15.7	18	19.9	21.9
